In brackets after ≈: the same amount, converted by molar mass.
Columns and labels:
Type in all cases: cell-based
[1] = test system: Pseudomonas aeruginosa (ATCC 27853); assay: MIC by broth microdilution
Description: (§1) The antibacterial potency of the test article(s) was measured using the in vitro broth microdilution assay under assay conditions described by the Clinical and Laboratory Standards Institute. […] The test substance was dissolved in 100% DMSO, suspended completely by sonication or vortexing, diluted by 2-fold serial titrations in the same vehicle, for a total of 11 test concentrations. A 4 μL aliquot of each dilution was added to 196 μL of broth medium seeded with the organism suspension in wells of a 96 well plate (bacterial count: 2−8×10^5 colony forming units/mL final). The final volume was 200 μL in each well and the final DMSO concentration was 2 percent. Following incubation for 1 day at 36° C., the test plates were visually examined and wells were scored for growth or complete growth inhibition to define the minimum inhibitory concentration. Each test substance was evaluated in duplicate and the results were reported as the duplicate test values. Vehicle-control and an active reference agent were used as blank and positive controls, respectively. Microorganisms tested were Acinetobacter baumannii (ATCC 17978), Enterococcus faecalis (ATCC 29212), Enterococcus faecium VanA (ATCC 700221), Escherichia coli (ATCC 25922), Escherichia coli efflux defective DEL-tolC (JW5503), Heamophilus influenzae (ATCC 49247), Klebsiella pneumoniae (ATCC 43816), Pseudomonas aeruginosa (ATCC 27853), Pseudomonas aeruginosa MDR (NTUH-974), Staphylococcus aureus (ATCC 29213), Staphylococcus aureus MRSA (ATCC 33591) and Streptococcous pneumoniae (ATCC 46919). H. influenzae was grown in Haemophilus Test Medium and S. pneumoniae was grown in cation adjusted Muller-Hinton Broth II with 5% lysed horse blood. All other microorganisms were grown in cation adjusted Muller-Hinton Broth II.
(§2) The antibacterial potency of the test article(s) was measured using the in vitro broth microdilution assay under assay conditions described by the Clinical and Laboratory Standards Institute. […] The test substance was dissolved in 100% DMSO (unless stated below), suspended completely by sonication or vortexing, diluted by 2-fold serial titrations in the same vehicle, for a total of 11 test concentrations. A 4 μL aliquot of each dilution was added to 196 μL of broth medium seeded with the organism suspension in wells of a 96 well plate (bacterial count: 2−8×10^5 colony forming units/mL final). The final volume was 200 μL in each well and the final DMSO concentration was 2 percent. Following incubation, the test plates were visually examined and wells were scored for growth or complete growth inhibition to define the minimum inhibitory concentration. Each test substance was evaluated in duplicate and the results below are the duplicate test values. Vehicle-control and an active reference agent were used as blank and positive controls, respectively.

[2] = test system: Pseudomonas aeruginosa, MDR (NTUH-974); assay: MIC by broth microdilution
Description: as §1, §2

[3] = test system: Klebsiella pneumoniae (ATCC 43816); assay: MIC by broth microdilution
Description: as §1, §2

[4] = test system: Acinetobacter baumannii (ATCC 17978); assay: MIC by broth microdilution
Description: as §1, §2

[5] = test system: Escherichia coli, efflux defective DEL-tolC (JW5503); assay: MIC by broth microdilution
Description: as §1, §2

[6] = test system: Escherichia coli (ATCC 25922); assay: MIC by broth microdilution
Description: as §1, §2

[7] = test system: Haemophilus influenzae (ATCC 49247); assay: MIC by broth microdilution; details: Table 2, Example 2
Description: as §2

Gram-negative bacteria = assay: MIC by broth microdilution, overall statement in words; details: for effectiveness against the bacteria of Table 2: Example 2, statement in words; for activity against Gram-negative bacteria: Example 1, statement in words
Description: as §1, §2

[8] = test system: Enterococcus faecalis (ATCC29212); assay: MIC by broth microdilution; details: Table 1, Example 1
Description: as §1

[9] = test system: Staphylococcus aureus (ATCC 29213); assay: MIC by broth microdilution; details: Table 1, Example 1
Description: as §1

[10] = test system: Enterococcus faecium, VanA (ATCC 700221); assay: MIC by broth microdilution; details: Table 1, Example 1
Description: as §1

[11] = test system: Staphylococcus aureus, MRSA (ATCC 33591); assay: MIC by broth microdilution; details: Table 1, Example 1
Description: as §1

[12] = test system: Streptococcus pneumoniae (ATCC 49619); assay: MIC by broth microdilution; details: Table 1, Example 1
Description: as §1

| Compound | MIC ([1]; Table 2, Example 2) | MIC ([2]; Table 2, Example 2) | MIC ([3]; Table 2, Example 2) | MIC ([4]; Table 2, Example 2) | MIC ([5]; Table 2, Example 2) | MIC ([6]; Table 2, Example 2) | MIC [7] | effectiveness against the bacteria of Table 2 (Gram-negative bacteria) | MIC ([1]; Table 1, Example 1) | MIC ([3]; Table 1, Example 1) | MIC ([4]; Table 1, Example 1) | MIC ([5]; Table 1, Example 1) | MIC ([6]; Table 1, Example 1) | MIC [8] | MIC [9] | MIC [10] | MIC [11] | activity against Gram-negative bacteria (Gram-negative bacteria) | MIC ([2]; Table 1, Example 1) | MIC [12] |
| --- | --- | --- | --- | --- | --- | --- | --- | --- | --- | --- | --- | --- | --- | --- | --- | --- | --- | --- | --- | --- |
| CN(C)Cc1ccc(/C=C/c2cc(/C=C/c3ccc(CC(N)=O)cc3)cc(/C=C/c3ccc(CC(=O)O)cc3)c2)cc1 [Compound 14] | >128 µg/mL | >128 µg/mL | >128 µg/mL | >128 µg/mL | >128 µg/mL | >128 µg/mL | >128 µg/mL | ineffective |  |  |  |  |  |  |  |  |  |  |  |  |
| CN(C)Cc1ccc(/C=C/c2cc(/C=C/c3ccc(CC(N)=O)cc3)cc(/C=C/c3ccc(CC(N)=O)cc3)c2)cc1 [Compound 15] | >128 µg/mL | >128 µg/mL | >128 µg/mL | >128 µg/mL | >128 µg/mL | >128 µg/mL | >128 µg/mL | ineffective |  |  |  |  |  |  |  |  |  |  |  |  |
| CN(C)Cc1ccc(/C=C/c2cc(/C=C/c3ccc(CC(=O)O)cc3)cc(/C=C/c3ccc(CC(=O)O)cc3)c2)cc1 [Compound 16] | >128 µg/mL | >128 µg/mL | >128 µg/mL | >128 µg/mL | >128 µg/mL | >128 µg/mL | >128 µg/mL | ineffective |  |  |  |  |  |  |  |  |  |  |  |  |
| N#Cc1ccc(CCc2cc(CCc3ccc(C#N)cc3)cc(CCc3ccc(C#N)cc3)c2)cc1 [Compound 4 (TSB064)] | >32.0 µg/mL | >32.0 µg/mL | >32.0 µg/mL | >32.0 µg/mL | >32.0 µg/mL | >32.0 µg/mL | >32.0 µg/mL |  |  |  |  |  |  |  |  |  |  |  |  |  |
| C[N+](C)(C)Cc1ccc(/C=C/c2cc(/C=C/c3ccc(C[N+](C)(C)C)cc3)cc(/C=C/c3ccc(C[N+](C)(C)C)cc3)c2)cc1.[I-].[I-].[I-] [Compound 1] | >128 µg/mL | >128 µg/mL | 128 µg/mL | 128 µg/mL | 32 µg/mL | 64 µg/mL | >128 µg/mL |  | > 256 µg/mL | 128 µg/mL | 128 µg/mL | 32 µg/mL | 64 µg/mL | 128 µg/mL | 32 µg/mL | 128 µg/mL | 16 µg/mL | active |  |  |
| CC(=O)ONc1ccc(CCc2cc(CCc3ccc(NOC(C)=O)cc3)cc(CCc3ccc(NOC(C)=O)cc3)c2)cc1 [Compound 9 (TSB016)] | >32.0 µg/mL | >32.0 µg/mL | >32.0 µg/mL | >32.0 µg/mL | >32.0 µg/mL | >32.0 µg/mL | >32.0 µg/mL |  |  |  |  |  |  |  |  |  |  |  |  |  |
| NC(=O)Cc1ccc(/C=C/c2cc(/C=C/c3ccc(CC(N)=O)cc3)cc(/C=C/c3ccc(CC(N)=O)cc3)c2)cc1 [Compound 17] | >128 µg/mL | >128 µg/mL | >128 µg/mL | >128 µg/mL | >128 µg/mL | >128 µg/mL | >128 µg/mL |  |  |  |  |  |  |  |  |  |  |  |  |  |
| CN(C)c1ccc(CCc2cc(CCc3ccc(N(C)C)cc3)cc(CCc3ccc(N(C)C)cc3)c2)cc1 [Compound 11 (TSB010)] | >32.0 µg/mL | >32.0 µg/mL | >32.0 µg/mL | >32.0 µg/mL | >32.0 µg/mL | >32.0 µg/mL | >32.0 µg/mL |  |  |  |  |  |  |  |  |  |  |  |  |  |
| CN(C)C(=O)c1ccc(CCc2cc(CCc3ccc(C(=O)N(C)C)cc3)cc(CCc3ccc(C(=O)N(C)C)cc3)c2)cc1 [Compound 5 (TSB032)] | >32.0 µg/mL | >32.0 µg/mL | >32.0 µg/mL | >32.0 µg/mL | >32.0 µg/mL | >32.0 µg/mL | >32.0 µg/mL |  |  |  |  |  |  |  |  |  |  |  |  |  |
| CN(C)Cc1ccc(/C=C/c2cc(/C=C/c3ccc(CN(C)C)cc3)cc(/C=C/c3ccc(CN(C)C)cc3)c2)cc1 [Compound 2] | 64 µg/mL (≈ 115 µM) | 32 µg/mL (≈ 57.6 µM) | 16 µg/mL (≈ 28.8 µM) | 16 µg/mL (≈ 28.8 µM) | 4 µg/mL (≈ 7.2 µM) | 8 µg/mL (≈ 14.4 µM) | >128 µg/mL |  | 64 µg/mL (≈ 115 µM) | 16 µg/mL (≈ 28.8 µM) | 16 µg/mL (≈ 28.8 µM) | 4 µg/mL (≈ 7.2 µM) | 8 µg/mL (≈ 14.4 µM) | 4 µg/mL (≈ 7.2 µM) | 4 µg/mL (≈ 7.2 µM) | 2 µg/mL (≈ 3.6 µM) | 4 µg/mL (≈ 7.2 µM) | active | 32 µg/mL (≈ 57.6 µM) | 32 µg/mL (≈ 57.6 µM) |
| N#Cc1ccc(/C=C/c2cc(/C=C/c3ccc(C#N)cc3)cc(/C=C/c3ccc(C#N)cc3)c2)cc1 [Compound 3] | >128 µg/mL | >128 µg/mL | >128 µg/mL | >128 µg/mL | >128 µg/mL | >128 µg/mL | >128 µg/mL |  |  |  |  |  |  |  |  |  |  |  |  |  |
| CN(C)c1ccc(/C=C/c2cc(/C=C/c3ccc(N(C)C)cc3)cc(/C=C/c3ccc(N(C)C)cc3)c2)cc1 [Compound 10] | >128 µg/mL | >128 µg/mL | >128 µg/mL | >128 µg/mL | >128 µg/mL | >128 µg/mL | >128 µg/mL |  |  |  |  |  |  |  |  |  |  |  |  |  |
| Nc1ccc(CCc2cc(CCc3ccc(N)cc3)cc(CCc3ccc(N)cc3)c2)cc1 [Compound 2 (TSB014)] | >32.0 µg/mL | >32.0 µg/mL | >32.0 µg/mL | >32.0 µg/mL | >32.0 µg/mL | >32.0 µg/mL | >32.0 µg/mL |  |  |  |  |  |  |  |  |  |  |  |  |  |
| O=[N+]([O-])c1ccc(CCc2cc(CCc3ccc([N+](=O)[O-])cc3)cc(CCc3ccc([N+](=O)[O-])cc3)c2)cc1 [Compound 8 (TSB036)] | >32.0 µg/mL | >32.0 µg/mL | >32.0 µg/mL | >32.0 µg/mL | >32.0 µg/mL | >32.0 µg/mL | >32.0 µg/mL |  |  |  |  |  |  |  |  |  |  |  |  |  |
| NC(=O)c1ccc(CCc2cc(CCc3ccc(C(N)=O)cc3)cc(CCc3ccc(C(N)=O)cc3)c2)cc1 [Compound 6 (TSB030)] | >32.0 µg/mL | >32.0 µg/mL | >32.0 µg/mL | >32.0 µg/mL | >32.0 µg/mL | >32.0 µg/mL | >32.0 µg/mL |  |  |  |  |  |  |  |  |  |  |  |  |  |
